Numbered stars: 1 amine (or outer) side, 2 acyl side, 3 side chain; on linkers, the order of the positions; unused ones are H or OH. Bridge positions count the residues as written; N and C are the ends. Square brackets hold non-standard residues; d marks the D form. Peptide text beside a SMILES is read from it. * marks the point of attachment. Lys(Me,(CH2)4NMe(CH2)5CO) = CN(CCCCCC(=O)[*:3])CCCCN(C)CCCC[C@H](N[*:1])C(=O)[*:2]; X2 = O=C(Cc1ccc(-c2ccc(CC(=O)[*:2])cc2)cc1)[*:1]; Trp(7-Me) = Cc1cccc2c(C[C@H](N)C(=O)O)c[nH]c12; Sebacoyl = O=C(CCCCCCCCC(=O)[*:2])[*:1]; NH(CH2)9CO = O=C(CCCCCCCCCN[*:1])[*:2]; 2Nal = N[C@@H](Cc1ccc2ccccc2c1)C(=O)O; Suberoyl = O=C(CCCCCCC(=O)[*:2])[*:1]; d2Nal = N[C@H](Cc1ccc2ccccc2c1)C(=O)O; C12 diacid = O=C(O)CCCCCCCCCCC(=O)*; X1 = O=C(CCCCCCCCCCCCCN[*:1])[*:2]; 3Pal = N[C@@H](Cc1cccnc1)C(=O)O; 12Ado = NCCCCCCCCCCCC(=O)O; AEEEA = NCCOCCOCCOCC(=O)O; Aun = NCCCCCCCCCCC(=O)O; Thp = NC1(C(=O)O)CCOCC1; Me2NCH2CH2 = CN(C)CC*; Aib = CC(C)(N)C(=O)O; Aoc = NCCCCCCCC(=O)O; Sar = CNCC(=O)O
Key:
human IL-23R = target: T1, human IL-23R (Homo sapiens, UniProt Q5VWK5); assay: Inhibition of IL-23 binding to IL-23R as measured by ELISA (Table 8); conditions: human IL23 coated 1 μg/ml; human IL-23R-Fc 0.1 μg/ml; 60 min; read-out: Human ELISA IL23/IL23R IC50
T1 sequence (Q5VWK5 24-353 limits assumed): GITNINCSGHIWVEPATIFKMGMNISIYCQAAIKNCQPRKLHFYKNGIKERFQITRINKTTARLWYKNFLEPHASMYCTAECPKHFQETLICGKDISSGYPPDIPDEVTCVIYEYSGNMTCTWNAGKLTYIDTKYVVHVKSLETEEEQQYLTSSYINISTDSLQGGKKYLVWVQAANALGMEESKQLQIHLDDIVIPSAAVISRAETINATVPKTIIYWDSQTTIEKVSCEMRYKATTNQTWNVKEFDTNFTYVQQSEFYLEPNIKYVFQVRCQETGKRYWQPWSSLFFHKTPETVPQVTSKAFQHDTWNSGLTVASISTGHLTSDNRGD
Experimental: Antagonism of compounds for human interleukin-23 receptor inhibitors, was determined by an ELISA assay.
A 384-well plate was coated with 50 μl/well of human IL23 at a final concentration of 1 μg/ml and incubated overnight at 4° C. The wells were washed 3 times with 80 μl wash buffer and blocked with 80 μl blocking buffer for 60 minutes at room temperature and washed again. 20 μl of serially diluted test peptides was added to each well and subsequently 20 μl of recombinant human IL-23R-Fc chimera at final concentration of 0.1 μg/ml. The plate was incubated for 60 minutes at room temperature. After the wells were washed, bound IL23R-Fc was detected with goat anti-hu-IgG1-HRP antibody. Signals were visualized with QUANTABLU fluorogenic peroxidase substrate.

[1] = Protease stability in simulated intestinal fluids (FaSSIF) (Table 7); assay type: in vitro ADME; conditions: fassif with pancreatin, 37° C.; for remaining at 1 h, 1 µM: 60 min, read-out: Remaining percentage of peptide compound, FaSSIF 60 (min); for remaining at 2 h, 1 µM: 120 min, read-out: Remaining percentage of peptide compound, FaSSIF 120 (min); for remaining at 4 h, 1 µM: 240 min, read-out: Remaining percentage of peptide compound, FaSSIF 240 (min)
Summary of the method: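 Percent parent remaining was derived from LC-MS/MS peak areas normalised to time 0, set at 100%. Sampling at 0, 60, 120 and 240 min, quenched in ethanol with 0.1% HCOOH. Final peptide 1 μM, 37° C, SIF containing pancreatin.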

Structure (SMILES) | IC50 (human IL-23R) [nM] | remaining at 1 h, 1 µM [1] [%] | remaining at 2 h, 1 µM [1] [%] | remaining at 4 h, 1 µM [1] [%]
CC(=O)NCCCC[C@@H]1NC(=O)[C@H](Cc2c[nH]c3c(C)cccc23)NC(=O)CCCCCN(C)CCCCN(C)CCCC[C@@H](C(=O)N[C@@H](CC(N)=O)C(=O)N[C@@H](Cc2cccnc2)C(=O)N(C)CC(N)=O)NC(=O)C(C)(C)NC(=O)[C@H](Cc2ccc3ccccc3c2)NC(=O)[C@H](Cc2ccc(OCCN(C)C)cc2)NC(=O)C2(CCOCC2)NC1=O [compound 18] ([Trp(7-Me)]K(Ac)[Thp]Y(Me2NCH2CH2)[2Nal][Aib][Lys(Me,(CH2)4NMe(CH2)5CO)]N[3Pal][Sar]-NH2; lactam N-7) | 0.68 | 95 | 88 | 85
Cc1cccc2c(C[C@@H]3NC(=O)CCCCCCCNC(=O)CC[C@@H](C(=O)N[C@@H](CC(N)=O)C(=O)N[C@@H](Cc4cccnc4)C(=O)N(C)CC(N)=O)NC(=O)C(C)(C)NC(=O)[C@H](Cc4ccc5ccccc5c4)NC(=O)[C@H](Cc4ccc(OCCN(C)C)cc4)NC(=O)C4(CCOCC4)NC(=O)[C@H](CC(C)C)NC3=O)c[nH]c12 [compound 9] ([Aoc][Trp(7-Me)]L[Thp]Y(Me2NCH2CH2)[2Nal][Aib]EN[3Pal][Sar]-NH2; lactam N-8) | 0.94 | 74 | 76 | 74
Cc1cccc2c(C[C@@H]3NC(=O)CCCCCCCCCCNC(=O)CC[C@@H](C(=O)N[C@@H](CC(N)=O)C(=O)N[C@@H](Cc4cccnc4)C(=O)N(C)CC(N)=O)NC(=O)C(C)(C)NC(=O)[C@@H](Cc4ccc5ccccc5c4)NC(=O)[C@H](Cc4ccc(OCCN(C)C)cc4)NC(=O)C4(CCOCC4)NC(=O)[C@H](CCC(N)=O)NC3=O)c[nH]c12 [compound 4] ([Aun][Trp(7-Me)]Q[Thp]Y(Me2NCH2CH2)[d2Nal][Aib]EN[3Pal][Sar]-NH2; lactam N-8) | 0.62 | 90 | 87 | 82
Cc1cccc2c(C[C@@H]3NC(=O)COCCOCCOCCNC(=O)CC[C@@H](C(=O)N[C@@H](CC(N)=O)C(=O)N[C@@H](Cc4cccnc4)C(=O)N(C)CC(N)=O)NC(=O)C(C)(C)NC(=O)[C@H](Cc4ccc5ccccc5c4)NC(=O)[C@H](Cc4ccc(OCCN(C)C)cc4)NC(=O)C4(CCOCC4)NC(=O)[C@H](CCC(N)=O)NC3=O)c[nH]c12 [compound 14] ([AEEEA][Trp(7-Me)]Q[Thp]Y(Me2NCH2CH2)[2Nal][Aib]EN[3Pal][Sar]-NH2; lactam N-8) | 0.46 | 94 | 90 | 88
Cc1cccc2c(C[C@@H]3NC(=O)CCCCCCCCCNC(=O)CC[C@@H](C(=O)N[C@@H](CC(N)=O)C(=O)N[C@@H](Cc4cccnc4)C(=O)N(C)CC(N)=O)NC(=O)C(C)(C)NC(=O)[C@H](Cc4ccc5ccccc5c4)NC(=O)[C@H](Cc4ccc(OCCN(C)C)cc4)NC(=O)C4(CCOCC4)NC(=O)[C@H](CC(C)C)NC3=O)c[nH]c12 [compound 8] ([NH(CH2)9CO][Trp(7-Me)]L[Thp]Y(Me2NCH2CH2)[2Nal][Aib]EN[3Pal][Sar]-NH2; lactam N-8) | 1.69 | 79 | 79 | 72
Cc1cccc2c(C[C@@H]3NC(=O)CCCCCCCCCCC(=O)NCCCC[C@@H](C(=O)N[C@@H](CC(N)=O)C(=O)N[C@@H](Cc4cccnc4)C(=O)N(C)CC(N)=O)NC(=O)C(C)(C)NC(=O)[C@H](Cc4ccc5ccccc5c4)NC(=O)[C@H](Cc4ccc(OCCN(C)C)cc4)NC(=O)C4(CCOCC4)NC(=O)[C@H](CCC(N)=O)NC3=O)c[nH]c12 [compound 10] ([Trp(7-Me)]Q[Thp]Y(Me2NCH2CH2)[2Nal][Aib]KN[3Pal][Sar]-NH2; linker N-7 via C12 diacid) | 0.55 | 79 | 78 | 77
Cc1cccc2c(C[C@@H]3NC(=O)Cc4ccc(cc4)-c4ccc(cc4)CC(=O)NCCCC[C@@H](C(=O)N[C@@H](CC(N)=O)C(=O)N[C@@H](Cc4cccnc4)C(=O)N(C)CC(N)=O)NC(=O)C(C)(C)NC(=O)[C@H](Cc4ccc5ccccc5c4)NC(=O)[C@H](Cc4ccc(OCCN(C)C)cc4)NC(=O)C4(CCOCC4)NC(=O)[C@H](CCC(N)=O)NC3=O)c[nH]c12 [compound 15] ([Trp(7-Me)]Q[Thp]Y(Me2NCH2CH2)[2Nal][Aib]KN[3Pal][Sar]-NH2; linker N-7 via X2) | 0.63 | 74 | 63 | 43
Cc1cccc2c(C[C@@H]3NC(=O)CCCCCCCCCCCCCNC(=O)CC[C@@H](C(=O)N[C@@H](CC(N)=O)C(=O)N[C@@H](Cc4cccnc4)C(=O)N(C)CC(N)=O)NC(=O)C(C)(C)NC(=O)[C@H](Cc4ccc5ccccc5c4)NC(=O)[C@H](Cc4ccc(OCCN(C)C)cc4)NC(=O)C4(CCOCC4)NC(=O)[C@H](CCC(N)=O)NC3=O)c[nH]c12 [compound 1] ([X1][Trp(7-Me)]Q[Thp]Y(Me2NCH2CH2)[2Nal][Aib]EN[3Pal][Sar]-NH2; lactam N-8) | 0.3 | 96 | 90 | 90
Cc1cccc2c(C[C@@H]3NC(=O)CCCCCCCCCCNC(=O)CC[C@@H](C(=O)N[C@@H](CC(N)=O)C(=O)N[C@@H](Cc4cccnc4)C(=O)N(C)CC(N)=O)NC(=O)C(C)(C)NC(=O)[C@H](Cc4ccc5ccccc5c4)NC(=O)[C@H](Cc4ccc(OCCN(C)C)cc4)NC(=O)C4(CCOCC4)NC(=O)[C@H](CC(C)C)NC3=O)c[nH]c12 [compound 7] ([Aun][Trp(7-Me)]L[Thp]Y(Me2NCH2CH2)[2Nal][Aib]EN[3Pal][Sar]-NH2; lactam N-8) | 2.41 | 80 | 81 | 82
CC(=O)NCCCC[C@@H]1NC(=O)[C@H](Cc2c[nH]c3c(C)cccc23)NC(=O)[C@@H](NC(C)=O)CCCCN(C)CCCCN(C)CCCC[C@@H](C(=O)N[C@@H](CC(N)=O)C(=O)N[C@@H](Cc2cccnc2)C(=O)N(C)CC(N)=O)NC(=O)C(C)(C)NC(=O)[C@@H](Cc2ccc3ccccc3c2)NC(=O)[C@H](Cc2ccc(OCCN(C)C)cc2)NC(=O)C2(CCOCC2)NC1=O [compound 13] | 0.41 | 90 | 89 | 88
Cc1cccc2c(C[C@@H]3NC(=O)CCCCCCCCCCCNC(=O)CC[C@@H](C(=O)N[C@@H](CC(N)=O)C(=O)N[C@@H](Cc4cccnc4)C(=O)N(C)CC(N)=O)NC(=O)C(C)(C)NC(=O)[C@H](Cc4ccc5ccccc5c4)NC(=O)[C@H](Cc4ccc(OCCN(C)C)cc4)NC(=O)C4(CCOCC4)NC(=O)[C@H](CCC(N)=O)NC3=O)c[nH]c12 [compound 2] ([12Ado][Trp(7-Me)]Q[Thp]Y(Me2NCH2CH2)[2Nal][Aib]EN[3Pal][Sar]-NH2; lactam N-8) | 0.32 | 100 | 94 | 94
Cc1cccc2c(C[C@@H]3NC(=O)CCCCCCCCC(=O)NCCCC[C@@H](C(=O)N[C@@H](CC(N)=O)C(=O)N[C@@H](Cc4cccnc4)C(=O)N(C)CC(N)=O)NC(=O)C(C)(C)NC(=O)[C@H](Cc4ccc5ccccc5c4)NC(=O)[C@H](Cc4ccc(OCCN(C)C)cc4)NC(=O)C4(CCOCC4)NC(=O)[C@H](CCC(N)=O)NC3=O)c[nH]c12 [compound 11] ([Trp(7-Me)]Q[Thp]Y(Me2NCH2CH2)[2Nal][Aib]KN[3Pal][Sar]-NH2; linker N-7 via Sebacoyl) | 0.62 | 74 | 73 | 69
Cc1cccc2c(C[C@@H]3NC(=O)CCCCCCC(=O)NCCCC[C@@H](C(=O)N[C@@H](CC(N)=O)C(=O)N[C@@H](Cc4cccnc4)C(=O)N(C)CC(N)=O)NC(=O)C(C)(C)NC(=O)[C@H](Cc4ccc5ccccc5c4)NC(=O)[C@H](Cc4ccc(OCCN(C)C)cc4)NC(=O)C4(CCOCC4)NC(=O)[C@H](CCC(N)=O)NC3=O)c[nH]c12 [compound 12] ([Trp(7-Me)]Q[Thp]Y(Me2NCH2CH2)[2Nal][Aib]KN[3Pal][Sar]-NH2; linker N-7 via Suberoyl) | 0.61 | 79 | 77 | 78

— US20260297129A1, “PEPTIDES AS SELECTIVE IL-23 RECEPTOR INHIBITORS” (SANOFI, priority 2023, published 2026)
